# In the supplement of paper PMC6045584:
# ± gives the standard deviation of the averaged measurements.
# Columns and labels:
# NILOTINIB = compound: Cc1cn(-c2cc(NC(=O)c3ccc(C)c(Nc4nccc(-c5cccnc5)n4)c3)cc(C(F)(F)F)c2)cn1 [NILOTINIB]; experiment: surviving fraction relative to DMSO-only wells; higher = less growth inhibition; details: exposure time: 5 days
# In short: (§1)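 Tumour cell lines were seeded in log phase at 250–500 cells per well into 384-well plates. Starting 24 hours later, inhibitors were present continuously for five days at 0.5, 1, 5, 10, 50, 100, 500 and 1000 nM. Surviving fraction, from CellTiter-Glo luminescence, is normalised to the median of DMSO-only wells. Three screens per line were required, with replicate Pearson r >0.7 and median Z' >0.3 for a line to be kept.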
# VORINOSTAT = compound: O=C(CCCCCCC(=O)Nc1ccccc1)NO [VORINOSTAT]; experiment: as above; details: exposure time: 5 days
# In short: as §1
Test System,surviving fraction (NILOTINIB; 0.5 nM),surviving fraction (NILOTINIB; 1 nM),surviving fraction (NILOTINIB; 5 nM),surviving fraction (NILOTINIB; 10 nM),surviving fraction (NILOTINIB; 50 nM),surviving fraction (NILOTINIB; 100 nM),surviving fraction (NILOTINIB; 500 nM),surviving fraction (NILOTINIB; 1000 nM),surviving fraction (VORINOSTAT; 0.5 nM),surviving fraction (VORINOSTAT; 1 nM),surviving fraction (VORINOSTAT; 5 nM),surviving fraction (VORINOSTAT; 10 nM),surviving fraction (VORINOSTAT; 50 nM),surviving fraction (VORINOSTAT; 100 nM),surviving fraction (VORINOSTAT; 500 nM),surviving fraction (VORINOSTAT; 1000 nM)
MDAMB436 BREAST,0.905 ± 0.076,1 ± 0.088,1 ± 0.017,0.964 ± 0.057,0.82 ± 0.087,0.915 ± 0.033,0.904 ± 0.03,0.78 ± 0.051,0.83 ± 0.045,0.905 ± 0.045,0.854 ± 0.056,0.911 ± 0.086,0.937 ± 0.081,0.835 ± 0.055,0.766 ± 0.072,0.582 ± 0.066
MDAMB453 BREAST,1 ± 0.045,0.998 ± 0.097,1.03 ± 0.077,1.05 ± 0.088,0.91 ± 0.02,0.925 ± 0.016,0.895 ± 0.0087,0.874 ± 0.068,0.998 ± 0.032,1.01 ± 0.079,1.03 ± 0.062,1.05 ± 0.065,1.06 ± 0.038,1.06 ± 0.022,0.785 ± 0.036,0.244 ± 0.0089
MDAMB468 BREAST,0.908 ± 0.055,0.931 ± 0.043,0.935 ± 0.069,1.05 ± 0.024,0.927 ± 0.037,0.835 ± 0.0095,0.9353 ± 0.0015,0.927 ± 0.045,0.891 ± 0.052,0.951 ± 0.03,1 ± 0.044,0.978 ± 0.023,1.12 ± 0.061,1.133 ± 0.007,0.818 ± 0.036,0.469 ± 0.007
MFM223 BREAST,1.11 ± 0.085,1.15 ± 0.12,1.08 ± 0.058,1.08 ± 0.056,0.798 ± 0.048,0.931 ± 0.15,0.9 ± 0.11,0.912 ± 0.13,1.05 ± 0.16,1.09 ± 0.047,1.13 ± 0.034,1.04 ± 0.043,1.18 ± 0.028,1.08 ± 0.03,0.738 ± 0.086,0.361 ± 0.029
MG63 BONE,1.03 ± 0.04,1.04 ± 0.053,1.11 ± 0.042,1.13 ± 0.079,1.19 ± 0.043,1.23 ± 0.07,1.24 ± 0.047,1.28 ± 0.049,1.03 ± 0.021,0.98033 ± 0.00058,1.058 ± 0.0097,1.02 ± 0.038,1.081 ± 0.0029,1.121 ± 0.011,1.02 ± 0.019,0.8407 ± 0.0078
MHM BONE,1.01 ± 0.028,0.999 ± 0.05,1.09 ± 0.014,1.06 ± 0.028,1.11 ± 0.023,1.13 ± 0.025,1.135 ± 0.0021,1.19 ± 0.059,0.928 ± 0.025,0.9847 ± 0.0087,1.01 ± 0.028,0.981 ± 0.019,1.03 ± 0.011,1 ± 0.019,0.985 ± 0.013,0.843 ± 0.025
NCIH441 LUNG,1.08 ± 0.14,1.01 ± 0.024,1.11 ± 0.037,1.05 ± 0.043,0.986 ± 0.11,0.91 ± 0.17,0.874 ± 0.022,0.889 ± 0.064,1.12 ± 0.041,1.02 ± 0.089,1.06 ± 0.033,1.04 ± 0.038,1.14 ± 0.02,0.959 ± 0.086,0.939 ± 0.024,0.546 ± 0.045
NOS1 BONE,0.958 ± 0.048,1.11 ± 0.029,1.07 ± 0.093,1.21 ± 0.048,1.02 ± 0.045,0.849 ± 0.013,0.666 ± 0.019,0.606 ± 0.03,1.01 ± 0.05,0.982 ± 0.17,1.04 ± 0.021,1.03 ± 0.056,1.14 ± 0.15,1.07 ± 0.091,0.713 ± 0.089,0.284 ± 0.0091
NY BONE,1.03 ± 0.038,1.04 ± 0.018,1.08 ± 0.025,1.1 ± 0.049,1.12 ± 0.043,1.12 ± 0.03,1.01 ± 0.06,1.01 ± 0.045,0.9877 ± 0.004,0.918 ± 0.029,0.973 ± 0.023,0.98 ± 0.033,1.037 ± 0.0042,0.916 ± 0.019,0.701 ± 0.012,0.448 ± 0.016
OS25HAL BONE,1.02 ± 0.034,0.973 ± 0.028,1.01 ± 0.037,0.997 ± 0.061,1.03 ± 0.019,0.944 ± 0.055,0.85 ± 0.05,0.795 ± 0.055,0.987 ± 0.014,0.962 ± 0.015,0.991 ± 0.015,0.943 ± 0.033,1.046 ± 0.0047,1.03 ± 0.031,0.91 ± 0.011,0.498 ± 0.018
OSHN BONE,1.02 ± 0.017,1.01 ± 0.023,1.06 ± 0.025,1.01 ± 0.029,0.996 ± 0.034,1 ± 0.033,0.967 ± 0.02,0.96 ± 0.026,1.05 ± 0.026,1.04 ± 0.019,1.05 ± 0.022,1.028 ± 0.0032,1.08 ± 0.042,1.08 ± 0.032,1.1 ± 0.022,0.903 ± 0.022
PCI30 HEADNECK,0.952 ± 0.075,0.888 ± 0.045,1.04 ± 0.06,1.01 ± 0.05,0.921 ± 0.072,0.871 ± 0.056,1.08 ± 0.073,0.965 ± 0.063,0.958 ± 0.064,0.982 ± 0.079,0.933 ± 0.087,1.01 ± 0.039,1.07 ± 0.053,0.962 ± 0.066,0.88 ± 0.064,0.735 ± 0.059
RDES SOFT TISSUE,1.14 ± 0.097,1.25 ± 0.058,0.966 ± 0.14,1.14 ± 0.14,0.847 ± 0.16,0.78 ± 0.026,0.821 ± 0.2,0.944 ± 0.13,1.21 ± 0.099,1.19 ± 0.13,1.2 ± 0.029,1.1 ± 0.02,1.05 ± 0.073,1.11 ± 0.12,0.831 ± 0.13,1.12 ± 0.39
S68 BREAST,1 ± 0.3,1.1 ± 0.14,1.34 ± 0.29,1.06 ± 0.32,0.643 ± 0.041,0.846 ± 0.29,0.449 ± 0.18,0.544 ± 0.2,0.723 ± 0.22,0.82 ± 0.18,0.91 ± 0.38,0.998 ± 0.21,1.22 ± 0.28,1.07 ± 0.17,0.73 ± 0.19,0.384 ± 0.018
SAOS2 BONE,1.13 ± 0.064,1.09 ± 0.038,1.19 ± 0.035,1.21 ± 0.062,0.963 ± 0.072,0.912 ± 0.091,0.91 ± 0.016,0.905 ± 0.06,1.09 ± 0.027,1.07 ± 0.047,1.09 ± 0.07,0.997 ± 0.088,1.24 ± 0.021,1.06 ± 0.048,0.91 ± 0.053,0.73 ± 0.017
SCC003 HEADNECK,1.1 ± 0.048,1.03 ± 0.14,1.1 ± 0.037,1.04 ± 0.02,0.873 ± 0.38,1 ± 0.23,0.906 ± 0.24,0.995 ± 0.13,1 ± 0.086,1.01 ± 0.15,1.02 ± 0.1,1.01 ± 0.093,1.09 ± 0.067,1.12 ± 0.091,1.14 ± 0.12,0.847 ± 0.16
SCC36 HEADNECK,1.04 ± 0.035,1.02 ± 0.043,1.06 ± 0.15,1.09 ± 0.046,0.839 ± 0.048,0.849 ± 0.04,0.74 ± 0.052,0.79 ± 0.038,1.01 ± 0.084,0.977 ± 0.073,1.1 ± 0.024,1.06 ± 0.082,1.12 ± 0.1,1.14 ± 0.12,0.677 ± 0.038,0.589 ± 0.054
SCC47 HEADNECK,1.07 ± 0.05,1.06 ± 0.045,1.15 ± 0.064,1.08 ± 0.025,1.041 ± 0.0046,1.04 ± 0.074,0.95 ± 0.037,0.932 ± 0.019,1.03 ± 0.04,1.03 ± 0.077,1.12 ± 0.034,1.02 ± 0.016,1.05 ± 0.023,1.1 ± 0.044,1.02 ± 0.083,0.897 ± 0.028
SCC90 HEADNECK,0.993 ± 0.034,1 ± 0.02,1.07 ± 0.17,1.201 ± 0.0059,0.966 ± 0.13,0.764 ± 0.045,0.924 ± 0.069,0.867 ± 0.1,1.13 ± 0.3,0.999 ± 0.1,1.13 ± 0.19,1.03 ± 0.1,1 ± 0.046,0.89 ± 0.089,0.689 ± 0.012,0.547 ± 0.0096
